Measured values from patent publication US11872199B2, “Topical formulations of cyclooxygenase inhibitors and their use” (SMARTECH TOPICAL, INC., priority 2019, dated 2024).

Tests used:
[1] = Franz diffusion cell skin permeation testing of diclofenac formulations; type: in vitro ADME, human; conditions: Example 7, as permeation enhancer in 2% diclofenac formulation
Protocol: Franz diffusion cell experiments were used to analyze flux rates of diclofenac from compositions taught under the present disclosure across human skin. See, e.g., Bartosova and Bajgar, Transdermal Drug Delivery In Vitro Using Diffusion Cells, Curr. Med. Chem. 2012, 19: 4671-4677.
In the examples described herein, Franz diffusion cells (“FDC”s) with a 3.3 mL receptor well volume were used, with either porcine skin or human cadaver skin. For human cadaver skin, split thickness human cadaver skin (0.015″-0.018″) was obtained from AlloSource (Centennial, Colo.) or Skin Bank New York Firefighters (New York, N.Y.). The skin tissue was dermatomed by the tissue bank to a thickness of some 250 μm and shipped frozen on dry ice. […]
The integrity and quality of each skin piece was tested prior to application of the test formulations through measurement of the transdermal flux of tritiated water or of the transepidermal electrical resistance (“TEER”) (skin integrity was usually not tested on porcine skin pieces). […] An alternating current (“AC”) signal, 100 mV root mean square (“RMS”) at 100 Hz, was applied across the skin using a waveform generator and the impedance is then measured with a digital multimeter and the results recorded in kΩ. Any FDC showing anomalously low impedance (nominally <2 kΩ) was discarded and the FDCs were ranked according to the magnitudes of the measured impedance readings. […]

[2] = printed as negative log P; cited from earlier work

| SMILES | effect on penetration of diclofenac [1] | log P [2] |
| --- | --- | --- |
| CCCCCCCC/C=C\CCCCCCCCO [Oleyl Alcohol, oleyl alcohol] | enhance penetration of diclofenac | – |
| CCCCCCCC/C=C\CCCCCCCC(=O)O [Oleic Acid, cis-9-octadecenoic acid] | enhance penetration of diclofenac | – |
| CCOCCOCCO [Transcutol, 2-(2-Ethoxyethoxy)ethanol] | – | ~-0.5 |
